Data reported in ChEMBL document CHEMBL1141992, “Synthesis and radiopharmacological evaluation of 2'-(4-fluorophenyl)-21-[18F]fluoro-20-oxo-11beta,17alpha-dihydroxy-pregn-4-eno[3,2-c]pyrazole as potential glucocorticoid receptor ligand for positron emission tomography (PET)” (Bioorg Med Chem Lett, 2005).

How the values were obtained:
[1] = Radioactivity expressed as percent injected dose per gram after single intravenous injection of 50 uCi after 5 min in rat thymus;n =4; assay type: ADME; details: in vivo
[2] = Radioactivity expressed as percent injected dose per gram after single intravenous injection of 50 uCi after 60 min in rat brain;n =4; assay type: ADME, tissue-based; details: in vivo, 1 h
[3] = Radioactivity expressed as percent injected dose per gram after single intravenous injection of 50 uCi after 60 min in rat testis;n =4; assay type: ADME; details: in vivo, 1 h
[4] = Radioactivity expressed as percent injected dose per gram after single intravenous injection of 50 uCi after 5 min in rat femur;n =4; assay type: ADME, tissue-based; details: in vivo
[5] = Radioactivity expressed as percent injected dose per gram after single intravenous injection of 50 uCi after 5 min in rat kidney;n =4; assay type: ADME, tissue-based; details: in vivo
[6] = Radioactivity expressed as percent injected dose per gram after single intravenous injection of 50 uCi after 60 min in rat muscle;n =4; assay type: ADME, tissue-based, Muscle tissue; details: in vivo, 1 h
[7] = Radioactivity expressed as percent injected dose per gram after single intravenous injection of 50 uCi after 5 min in rat brown fat;n =4; assay type: ADME; details: in vivo
[8] = Radioactivity expressed as percent injected dose per gram after single intravenous injection of 50 uCi after 60 min in rat femur;n =4; assay type: ADME, tissue-based; details: in vivo, 1 h
[9] = Radioactivity expressed as percent injected dose per gram after single intravenous injection of 50 uCi after 5 min in rat hard glands;n =4; assay type: ADME; details: in vivo
[10] = Radioactivity expressed as percent injected dose per gram after single intravenous injection of 50 uCi after 5 min in rat pancreas;n =4; assay type: ADME; details: in vivo
[11] = Activity distribution of compound in blocked (hydrocortisone) rat brain pituitary after single iv injection of 0.9 mCi at 60 min after injection by ex vivo autoradiography; assay type: ADME, organism-based; details: 1 h
[12] = Radioactivity expressed as percent injected dose per gram after single intravenous injection of 50 uCi after 60 min in rat blood;n =4; assay type: ADME; details: in vivo, 1 h
[13] = Radioactivity expressed as percent injected dose per gram after single intravenous injection of 50 uCi after 5 min in rat heart;n =4; assay type: ADME; details: in vivo
[14] = Radioactivity expressed as percent injected dose per gram after single intravenous injection of 50 uCi after 60 min in rat adrenals;n =4; assay type: ADME, tissue-based, Adrenal gland; details: in vivo, 1 h
[15] = Radioactivity expressed as percent injected dose per gram after single intravenous injection of 50 uCi after 60 min in rat spleen;n =4; assay type: ADME, tissue-based; details: in vivo, 1 h
[16] = Radioactivity expressed as percent injected dose per gram after single intravenous injection of 50 uCi after 60 min in rat pancreas;n =4; assay type: ADME; details: in vivo, 1 h
[17] = Radioactivity expressed as percent injected dose per gram after single intravenous injection of 50 uCi after 5 min in rat brain;n =4; assay type: ADME, tissue-based; details: in vivo
[18] = Radioactivity expressed as percent injected dose per gram after single intravenous injection of 50 uCi after 5 min in rat spleen;n =4; assay type: ADME, tissue-based; details: in vivo
[19] = Activity distribution of compound in blocked (hydrocortisone) rat brain plexus choroideus after single iv injection of 0.9 mCi at 60 min after injection by ex vivo autoradiography; assay type: ADME, organism-based; details: 1 h
[20] = Radioactivity expressed as percent injected dose per gram after single intravenous injection of 50 uCi after 5 min in rat adrenals;n =4; assay type: ADME, tissue-based, Adrenal gland; details: in vivo
[21] = Activity distribution of compound in blocked (hydrocortisone) rat brain hippocampus after single iv injection of 0.9 mCi at 60 min after injection by ex vivo autoradiography; assay type: ADME, organism-based; details: 1 h
[22] = Radioactivity expressed as percent injected dose per gram after single intravenous injection of 50 uCi after 5 min in rat lung;n =4; assay type: ADME; details: in vivo
[23] = Radioactivity expressed as percent injected dose per gram after single intravenous injection of 50 uCi after 60 min in rat heart;n =4; assay type: ADME; details: in vivo, 1 h
[24] = Radioactivity expressed as percent injected dose per gram after single intravenous injection of 50 uCi after 60 min in rat pituitary;n =4; assay type: ADME; details: in vivo, 1 h
[25] = Radioactivity expressed as percent injected dose per gram after single intravenous injection of 50 uCi after 5 min in rat pituitary;n =4; assay type: ADME; details: in vivo
[26] = Activity distribution of compound in blocked (hydrocortisone) rat brain cerebellar nuclei after single iv injection of 0.9 mCi at 60 min after injection by ex vivo autoradiography; assay type: ADME, organism-based; details: 1 h
[27] = Activity distribution of compound in blocked (hydrocortisone) rat brain cortex after single iv injection of 0.9 mCi at 60 min after injection by ex vivo autoradiography; assay type: ADME, organism-based; details: 1 h
[28] = Radioactivity expressed as percent injected dose per gram after single intravenous injection of 50 uCi after 60 min in rat lung;n =4; assay type: ADME; details: in vivo, 1 h
[29] = Radioactivity expressed as percent injected dose per gram after single intravenous injection of 50 uCi after 60 min in rat thymus;n =4; assay type: ADME; details: in vivo, 1 h
[30] = Radioactivity expressed as percent injected dose per gram after single intravenous injection of 50 uCi after 60 min in rat kidney;n =4; assay type: ADME, tissue-based; details: in vivo, 1 h
[31] = Radioactivity expressed as percent injected dose per gram after single intravenous injection of 50 uCi after 5 min in rat fat;n =4; assay type: ADME; details: in vivo
[32] = Radioactivity expressed as percent injected dose per gram after single intravenous injection of 50 uCi after 5 min in rat testis;n =4; assay type: ADME; details: in vivo
[33] = Radioactivity expressed as percent injected dose per gram after single intravenous injection of 50 uCi after 60 min in rat hard glands;n =4; assay type: ADME; details: in vivo, 1 h
[34] = Radioactivity expressed as percent injected dose per gram after single intravenous injection of 50 uCi after 60 min in rat liver;n =4; assay type: ADME, tissue-based; details: in vivo, 1 h
[35] = Radioactivity expressed as percent injected dose per gram after single intravenous injection of 50 uCi after 60 min in rat fat;n =4; assay type: ADME; details: in vivo, 1 h
[36] = Radioactivity expressed as percent injected dose per gram after single intravenous injection of 50 uCi after 5 min in rat blood;n =4; assay type: ADME; details: in vivo
[37] = Activity distribution of compound in blocked (hydrocortisone) rat brain inferior coliculi after single iv injection of 0.9 mCi at 60 min after injection by ex vivo autoradiography; assay type: ADME, organism-based; details: 1 h
[38] = Radioactivity expressed as percent injected dose per gram after single intravenous injection of 50 uCi after 5 min in rat muscle;n =4; assay type: ADME, tissue-based, Muscle tissue; details: in vivo
[39] = Radioactivity expressed as percent injected dose per gram after single intravenous injection of 50 uCi after 60 min in rat brown fat;n =4; assay type: ADME; details: in vivo, 1 h
[40] = Radioactivity expressed as percent injected dose per gram after single intravenous injection of 50 uCi after 5 min in rat liver;n =4; assay type: ADME, tissue-based; details: in vivo

C[C@]12Cc3cnn(-c4ccc(F)cc4)c3C=C1CCC1C2[C@@H](O)C[C@@]2(C)C1CC[C@]2(O)C(=O)C[18F] (stereo not given in full)
ID/g [1]: 0.37% | ID/g [2]: 0.25% | ID/g [3]: 0.07% | ID/g [4]: 0.34% | ID/g [5]: 0.66% | ID/g [6]: 0.32% | ID/g [7]: 0.8% | ID/g [8]: 0.22% | ID/g [9]: 1.09% | ID/g [10]: 0.85% | ID/g [11]: 1.36% | ID/g [12]: 0.08% | ID/g [13]: 0.63% | ID/g [14]: 1.96% | ID/g [15]: 0.44% | ID/g [16]: 0.85% | ID/g [17]: 0.26% | ID/g [18]: 0.4% | ID/g [19]: 0.83% | ID/g [20]: 1.23% | ID/g [21]: 0.59% | ID/g [22]: 0.6% | ID/g [23]: 0.66% | ID/g [24]: 0.82% | ID/g [25]: 0.52% | ID/g [26]: 0.94% | ID/g [27]: 0.7% | ID/g [28]: 0.66% | ID/g [29]: 0.4% | ID/g [30]: 0.87% | ID/g [31]: 0.82% | ID/g [32]: 0.18% | ID/g [33]: 0.55% | ID/g [34]: 2.15% | ID/g [35]: 0.31% | ID/g [36]: 0.06% | ID/g [37]: 0.89% | ID/g [38]: 0.31% | ID/g [39]: 0.91% | ID/g [40]: 1.3%
